Like-named read-outs stand apart in the source and are kept apart here.
Assays:
[1] = molecular target: sRAGE (S100b as the RAGE ligand) (Homo sapiens, UniProt Q15109); experiment: General binding assay: inhibition of sRAGE binding to plate-bound S100b; details: n = 13, hydrochloride salt
Method: (§1) The following is one potential method for screening. S100b or β-amyloid (500 ng/100 μL/well) in 100 mM sodium bicarbonate/sodium carbonate buffer (pH 9.8) is loaded onto the wells of a NUNC Maxisorp flat bottom 96-well microtitre plate. The plate is incubated at 4° C. overnight. The wells are aspirated and treated with 50 mM imidazole buffer saline (pH 7.2) (with 5 mM CaCl2)/MgCl2) containing 1% bovine serum albumin (BSA) (300 μL/well) for 1 h at RT. The wells are aspirated.
(§2) The test compound is dissolved in nanopure water (concentration: 10-100 μM). DMSO may be used as co-solvent. 25 μL of test compound solution in 4% DMSO is added, along with 75 μL sRAGE (6 nM FAC) to each well and samples are incubated for 1 h at 37° C. The wells are washed several times with 155 mM NaCl pH 7.2 buffer saline and are soaked for several seconds between each wash.
(§3) Non-Radioactive Detection is Performed by Adding:
(§4) 10 μL Biotinylated goat F(ab′)2 Anti-mouse IgG. […]
(§5) 100 μL of complex is added to each well and incubation is allowed to proceed at rt for 1 h. […] The reaction is quenched with 10 μL of stop solution (0.5-1.0 N NaOH in 50% ethanol) and the absorbance is measured spectrophotometrically with a microplate reader at 405 nm. […]

[2] = molecular target: sRAGE (β-amyloid as the RAGE ligand) (Homo sapiens, UniProt Q15109); experiment: General binding assay: inhibition of sRAGE binding to plate-bound β-amyloid; details: n = 11, hydrochloride salt
Method: as §1, §2, §3, §4, §5

[3] = tested on: S100b mediated TNF release from THP-1 cells (RAGE signaling); experiment: Functional assay: inhibition of S100b mediated TNF release from THP-1 cells; type: cell-based; details: Homo sapiens; THP-1 cells stimulated with bovine S100b; TNF-alpha by ELISA after 24 hours; hydrochloride salt
Method: Previously the literature has cited that THP-1 cells in response to RAGE ligands secrete TNF alpha (Yeh C-H, et al. Diabetes. Vol. 50, June 2001, pp. 1495-1504). The following assay method may be used to identify compounds of Formula (I) or pharmaceutically acceptable salts thereof which are useful as antagonists of RAGE signaling.
The myeloid cell line, THP-1 (ATTC # TIB-202), is cultured in RPMI-1640 media (ATCC, Cat #30-2001) supplemented with fetal bovine serum to a final concentration of 10% by volume and Penicillin-Streptomycin (Gibco, Cat #0.15140-122). Alternatively, media may be formulated using RPMI 1640 (Bio-Whitaker #12-702F) supplemented with 2 mM L-glutamine (Gibco #12381-018) adjusted to contain 1.5 g/L sodium bicarbonate (Gibco #25080-094), 4.5 g/L glucose, 10 mM HEPES (Cellgro #25-060-L1) and 1.0 mM sodium pyruvate (Gibco #11360-070) and supplemented with 0.05 mM 2-mercaptoethanol, […] per ATCC instructions. During culture, the culture cells may be maintained at a density between 5×10^4 and 1×10^6 viable cells/mL. […]
The amount of TNF-alpha secreted by the THP-1 cells may be measured 24 hours after the addition of the stimulant proteins to the cell culture using a commercially available ELISA kit (R&D Systems, Minneapolis, Minn. # DY210). […] The plate may be read at 450 nm within 30 minutes. […]

UniProt Q15109, sequence (Q15109 23-342 limits assumed): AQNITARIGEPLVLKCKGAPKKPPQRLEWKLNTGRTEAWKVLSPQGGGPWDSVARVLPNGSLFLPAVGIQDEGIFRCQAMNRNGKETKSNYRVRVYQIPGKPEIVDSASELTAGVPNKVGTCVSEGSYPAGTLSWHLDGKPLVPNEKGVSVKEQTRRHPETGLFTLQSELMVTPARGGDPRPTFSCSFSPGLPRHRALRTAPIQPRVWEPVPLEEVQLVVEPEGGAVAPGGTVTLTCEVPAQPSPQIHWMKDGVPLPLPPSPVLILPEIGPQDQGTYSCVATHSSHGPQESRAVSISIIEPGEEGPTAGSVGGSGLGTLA
UniProt Q15109, sequence (Q15109 23-342 limits assumed): as above

In the case of `Cc1nn(C2CCCCC2)c(C)c1S(=O)(=O)N1CCC(CN(CC(C)C)S(=O)(=O)c2ccc(CNCC3CCNCC3)cc2)(c2ccccc2)CC1` [compound of Formula (I), N-[1-(1-Cyclohexyl-3,5-dimethyl-1H-pyrazole-4-sulfonyl)-4-phenyl-piperidin-4-ylmethyl]-N-isobutyl-4-{[(piperidin-4-ylmethyl)-amino]-methyl}-benzenesulfonamide], the IC50 ([1]; average, read-out: IC50 (S100b) average) is reported as 420 nM, the IC50 ([1]; range of individual determinations, read-out: IC50 (S100b)) is reported as 220 to 620 nM and the IC50 ([2]; average, read-out: IC50 (β-amyloid) average) is reported as 400 nM. The IC50 ([2]; range of individual determinations, read-out: IC50 (β-amyloid)) was 270 to 600 nM and the IC50 [3] was about 500 nM.
